Experimental data: US7759101B2, “Ginsenoside glycosidases hydrolyzing ginsenoside sugar moieties and uses thereof” (priority 2000, dated 2010)

Experiments:
[1] = system: ginsenoside glycosidase I; experiment: Hydrolysis of ginsenosides with Fraction 36 (ginsenoside glycosidase I); assay type: biochemical, Aspergillus niger; conditions: Fraction 36; substrates Rb1, Rb2, Rc, Rd 0.5%; Rg3, F2, Rh2, C—K, Rg2 0.05%; pH 5.0, 30° C.
Protocol: 10 ml of the enzyme solution obtained in 1.1 was subjected to a DEAE-Cellulose DE-52 column (Pharamcia, 1.5×6.7 cm) to absorb the enzyme protein. The column was then eluted with a NaCl gradient (0.06, 0.12, 0.18, 0.24, 0.3, 0.4, 0.5 and 0.6M).
Fractions 36 and 54 from the DEAE-Cellulose column appeared as one dot on a SDS-polyacrylamide gel, representing the purified enzymes.
Fraction 36 which was eluted with 0.12 M NaCl from the DEAE-Cellulose column was lyophilized and appeared as a single dot with a molecular weight of 51,000 Daltons when running on a SDS-polyacrylamide gel.
To observe the differences between the ginsenoside glycosidases of the invention and known exo-cellulases, the ginsenoside glycosidases of the invention were compared with cellulose β-glucosidase (E.C. 3.2.1.21) in two reactions with 0.5% ginsenosides Rb1 or Rd as substrate.

[2] = system: ginsenoside glycosidases from A. oryzae; experiment: Hydrolysis of ginsenosides with crude ginsenoside glycosidases from A. oryzae, TLC; assay type: biochemical, Aspergillus oryzae; conditions: pH 5.0, 30° C., 18 hours
Protocol: (§1) Aspergillus oryzae FFCCDL-39 g (available from Food Fermentation Culture Collection of Dalian Institute of Light Industry) was cultured with stirring in a medium containing 1% ginseng extracts and 3% wheat bran extracts at 30° C. for 64 hours. Cells were removed by centrifugation, after which (NH4)2SO4 powder was added to 2000 ml of the cell-free supernatant with stirring to 65% saturation. The solution was stored overnight at 4° C. and precipitated proteins were collected by centrifugation, resuspended in 80 ml of distilled water and dialyzed against 0.01M acetate buffer pH 5. Insolubles were removed by centrifugation, and the solution was adjusted to 200 ml with 0.01 M acetate buffer pH 5. The crude enzyme solution may be used to hydrolyze ginsenosides or to purify the enzymes.
Each 100 mg of ginsenosides Rb1, Rb2, Rc Re and Rd and each 10 mg of ginsenoside Rg3 and Rg2 were dissolved in separate tubes containing 10 ml of 0.01M acetate buffer pH 5. 10 ml of the crude enzyme solution obtained as above was added to each tube and allowed to react at 30° C. for 18 hours. Then 10 ml of n-butanol was added to stop the reactions. The products were measured by thin layer chromatography (TLC) (Silica gel 60-F254, Merck; chloroform:methanol:water 70:30:5). […]

[3] = system: ginsenoside glycosidases from A. niger; experiment: Hydrolysis of ginsenosides with crude ginsenoside glycosidases from A. niger, products measured by TLC; assay type: biochemical, Aspergillus niger; conditions: for effect of metal ions on the enzyme reaction: hydrolysis of Rb1, pH 5.0, 30°C.
Protocol: as §1, with “niger FFCCDL-48” for “oryzae FFCCDL-39”, “g” for “g (available from Food Fermentation Culture Collection of Dalian Institute of Light Industry)”, “cultured” for “cultured with stirring”, “54” for “64”
100 mg each of ginsenosides Rb1, Rb2, Rc and Rd and 10 mg of ginsenoside Rg3 were dissolved in separate tubes containing 10 ml of 0.01M acetate buffer pH 5. 10 ml of the crude enzyme solution obtained in 1.1 was added to each tube and allowed to react at 30° C. for 18 hours. Then 10 ml of n-butanol was added to stop the reactions. The products were measured by thin layer chromatography (TLC) (Silica gel 60-F254, Merck; chloroform:methanol:water 70:30:5).
Experiments were carried out to explore the effects of temperature, pH, metal ions and reaction time on the enzyme reaction, in order to further characterize the enzymes.
100 mg of ginsenoside Rb1 was used in a reaction under the conditions as described in 1.2 and the effect of temperature was shown in Table 2.

[4] = system: ginsenoside glycosidase I from ginseng plants; experiment: Hydrolysis of ginsenosides with fraction 52 (ginsenoside glycosidase I) from ginseng plant; assay type: biochemical; conditions: for Percentage of F2 in the reaction product / Percentage of Rd in the reaction product: Fraction 52, substrate 0.5%, 50° C., pH 5.0, 18 hours; for effect of metal ion on the enzyme: ginsenoside glycosidase I from ginseng plant
Protocol: (§2) 200 g of fresh ginseng root was cut into pieces and added to 600 ml of 0.02 M acetate buffer pH 5. Supernatant was obtained by filtration after the mixture stand at 40° C. for 2 hours. To the supernatant (NH4)2SO4 was added gradually until 70% saturation and the mixture stand overnight at 4° C. Then protein pellets were collected by centrifugation and redissolved in 15 ml of distilled water. The solution was dialyzed against 0.02 M Tris-HCl pH 7.4. Insolubles were removed by centrifugation and the volume of the supernatant was adjusted to 20 ml.
(§3) 5 ml of the enzyme solution was subjected to a DEAE-Cellulose DE-25 column (Whatman, 1.4×6.7 cm). The column was eluted with a KCl gradient (0.06, 0.12, 0.18 and 0.24 M) in 0.02 M Tris-HCl pH 7.4. After elution, each fraction was tested for the activity of hydrolyzing ginsenosides. […] Fraction 52 can also hydrolyze the glucosidic bond at the twentieth carbon atom of Rb and Rc to give ginsenoside F2.

[5] = system: ginsenoside glycosidases from wheat bran; experiment: Hydrolysis of ginsenosides with ginsenoside glycosidases from wheat bran; assay type: biochemical; conditions: for Percentage of F2 in the reaction product / Percentage of Rd in the reaction product: 10 ml of 1% ginsenoside substrate, 40° C., 20 hours; for effect of metal ion on the enzyme activity: enzymes from wheat bran
Protocol: 500 g of wheat bran was added to 2500 ml of 0.02 M acetate buffer pH 5 and extracted at 40° C. for 2 hours. 2000 ml of supernatant were obtained by filtration to which (NH4)2SO4 was added gradually with stirring until 70% saturation. The mixture stand at 4° C. overnight. Protein pellets were collected by centrifugation and redissolved in 80 ml of distilled water and dialyzed against 0.02 M acetate buffer pH 5.0. Insolubles were removed by centrifugation and the supernatant was adjusted to a volume of 200 ml to obtain the crude enzyme solution.
10 ml of the enzyme solution was allowed to react with 10 ml of 1% ginsenoside substrate at 40° C. for 20 hours.

[6] = system: ginsenoside glycosidase III from ginseng plant; experiment: Hydrolysis of Rd with fraction 37 (ginsenoside glycosidase III) from ginseng plant; assay type: biochemical; conditions: ginsenoside glycosidase III from ginseng plant
Protocol: as §2, §3

CC(C)=CCC[C@](C)(O[C@@H]1O[C@H](CO)[C@@H](O)[C@H](O)[C@H]1O)[C@H]1CC[C@]2(C)[C@@H]1[C@H](O)C[C@@H]1[C@@]3(C)CC[C@H](O[C@@H]4O[C@H](CO)[C@@H](O)[C@H](O)[C@H]4O)C(C)(C)[C@@H]3CC[C@]12C [F2, ginsenoside F2]
Percentage of C—K in the reaction product [1]: 62%
Percentage of F2 in the reaction product [1]: 30%
Percentage of Rh2 in the reaction product [1]: 3%
Percentage of aglycone in the reaction product [1]: 5%

CC(C)=CCC[C@](C)(O)[C@H]1CC[C@]2(C)[C@@H]1[C@H](O)C[C@@H]1[C@@]3(C)CC[C@H](O)C(C)(C)[C@@H]3[C@@H](O[C@@H]3O[C@H](CO)[C@@H](O)[C@H](O)[C@H]3O[C@@H]3O[C@@H](C)[C@H](O)[C@@H](O)[C@H]3O)C[C@]12C [Rg2, ginsenoside Rg2]
Percentage of Rg2 in the reaction product [1]: 100%
Percentage of Rg2 in the reaction product [2]: 32%
Percentage of Rh1 in the reaction product [2]: 75%
Percentage of aglycone in the reaction product [2]: 3%

CC(C)=CCC[C@](C)(O)[C@H]1CC[C@]2(C)[C@@H]1[C@H](O)C[C@@H]1[C@@]3(C)CC[C@H](O[C@@H]4O[C@H](CO)[C@@H](O)[C@H](O)[C@H]4O[C@@H]4O[C@H](CO)[C@@H](O)[C@H](O)[C@H]4O)C(C)(C)[C@@H]3CC[C@]12C [Rg3, ginsenoside Rg3]
Percentage of Rg3 in the reaction product ([3]; pH 5, 30° C., 18 hours): 30%
Percentage of Rh2 in the reaction product ([3]; pH 5, 30° C., 18 hours): 53%
Percentage of aglycone in the reaction product ([3]; pH 5, 30° C., 18 hours): 17%
conversion rate from Rg3 to Rh2 ([3]; pH 5, 30° C., 18 hours): over 50%
Percentage of Rg3 in the reaction product [1]: 40%
Percentage of Rh2 in the reaction product [1]: 57%
Percentage of aglycone in the reaction product [1]: 3%
Percentage of Rg3 in the reaction product [2]: 45%
Percentage of Rh2 in the reaction product [2]: 50%
Percentage of aglycone in the reaction product [2]: 5%

CC(C)=CCC[C@](C)(O[C@@H]1O[C@H](CO[C@@H]2OC[C@H](O)[C@H](O)[C@H]2O)[C@@H](O)[C@H](O)[C@H]1O)[C@H]1CC[C@]2(C)[C@@H]1[C@H](O)C[C@@H]1[C@@]3(C)CC[C@H](O[C@@H]4O[C@H](CO)[C@@H](O)[C@H](O)[C@H]4O[C@@H]4O[C@H](CO)[C@@H](O)[C@H](O)[C@H]4O)C(C)(C)[C@@H]3CC[C@]12C [Rb2, ginsenoside Rb2]
Percentage of C—K in the reaction product ([3]; pH 5, 30° C., 18 hours): 17%
Percentage of F2 in the reaction product ([3]; pH 5, 30° C., 18 hours): 57%
Percentage of Rb2 in the reaction product ([3]; pH 5, 30° C., 18 hours): 7%
Percentage of Rd in the reaction product ([3]; pH 5, 30° C., 18 hours): 13%
Percentage of Rh2 in the reaction product ([3]; pH 5, 30° C., 18 hours): 3%
Percentage of aglycone in the reaction product ([3]; pH 5, 30° C., 18 hours): 3%
Percentage of C—K in the reaction product [1]: 54%
Percentage of F2 in the reaction product [1]: 35%
Percentage of Rd in the reaction product [1]: 9%
Percentage of Rh2 in the reaction product [1]: 1%
Percentage of aglycone in the reaction product [1]: 1%
Percentage of C—K in the reaction product [2]: 54%
Percentage of F2 in the reaction product [2]: 35%
Percentage of Rd in the reaction product [2]: 18%
Percentage of aglycone in the reaction product [2]: 3%
Percentage of F2 in the reaction product [4]: 65%
Percentage of Rd in the reaction product [4]: 35%
Percentage of F2 in the reaction product [5]: 50%
Percentage of Rd in the reaction product [5]: 45%

[Fe+2] [Fe^++]
effect of metal ion on the enzyme activity [5]: enhance the enzyme activity

CC(C)=CCC[C@](C)(O[C@@H]1O[C@H](CO)[C@@H](O)[C@H](O)[C@H]1O)[C@H]1CC[C@]2(C)[C@@H]1[C@H](O)C[C@@H]1[C@@]3(C)CC[C@H](O)C(C)(C)[C@@H]3CC[C@]12C [C—K, ginsenoside C-K]
Percentage of C—K in the reaction product [1]: 97%
Percentage of aglycone in the reaction product [1]: 3%

[Cu+2] [Cu^++]
effect of metal ions on the enzyme reaction [3]: inhibit the reaction
effect of metal ion on the enzyme [4]: inhibitory effect
effect of metal ion on the enzyme [6]: inhibitory effect
effect of metal ion on the enzyme activity [5]: inhibitory effect

CC(C)=CCC[C@](C)(O[C@@H]1O[C@H](CO)[C@@H](O)[C@H](O)[C@H]1O)[C@H]1CC[C@]2(C)[C@@H]1[C@H](O)C[C@@H]1[C@@]3(C)CC[C@H](O)C(C)(C)[C@@H]3[C@@H](O[C@@H]3O[C@H](CO)[C@@H](O)[C@H](O)[C@H]3O[C@@H]3O[C@@H](C)[C@H](O)[C@@H](O)[C@H]3O)C[C@]12C [Re, ginsenoside Re]
Percentage of Re in the reaction product [2]: 20%
Percentage of Rg1 in the reaction product [2]: 73%
Percentage of Rh1 in the reaction product [2]: 2%
Percentage of aglycone in the reaction product [2]: 5%

CC(C)=CCC[C@](C)(O)[C@H]1CC[C@]2(C)[C@@H]1[C@H](O)C[C@@H]1[C@@]3(C)CC[C@H](O[C@@H]4O[C@H](CO)[C@@H](O)[C@H](O)[C@H]4O)C(C)(C)[C@@H]3CC[C@]12C [Rh2, ginsenoside Rh2]
Percentage of Rh2 in the reaction product [1]: 89%
Percentage of aglycone in the reaction product [1]: 10%

[Ca+2] [Ca^++]
effect of metal ions on the enzyme reaction [3]: slightly accelerate the conversion rate
effect of metal ion on the enzyme [4]: enhancing effect
effect of metal ion on the enzyme [6]: enhancing effect

[Mg+2] [Mg^++]
effect of metal ions on the enzyme reaction [3]: slightly accelerate the conversion rate
effect of metal ion on the enzyme activity [5]: enhance the enzyme activity

CC(C)=CCC[C@](C)(O[C@@H]1O[C@H](CO[C@@H]2O[C@@H](CO)[C@H](O)[C@H]2O)[C@@H](O)[C@H](O)[C@H]1O)[C@H]1CC[C@]2(C)[C@@H]1[C@H](O)C[C@@H]1[C@@]3(C)CC[C@H](O[C@@H]4O[C@H](CO)[C@@H](O)[C@H](O)[C@H]4O[C@@H]4O[C@H](CO)[C@@H](O)[C@H](O)[C@H]4O)C(C)(C)[C@@H]3CC[C@]12C [Rc, ginsenoside Rc]
Percentage of C—K in the reaction product ([3]; pH 5, 30° C., 18 hours): 15%
Percentage of F2 in the reaction product ([3]; pH 5, 30° C., 18 hours): 58%
Percentage of Rc in the reaction product ([3]; pH 5, 30° C., 18 hours): 8%
Percentage of Rd in the reaction product ([3]; pH 5, 30° C., 18 hours): 12%
Percentage of Rh2 in the reaction product ([3]; pH 5, 30° C., 18 hours): 2%
Percentage of aglycone in the reaction product ([3]; pH 5, 30° C., 18 hours): 5%
Percentage of C—K in the reaction product [1]: 52%
Percentage of F2 in the reaction product [1]: 36%
Percentage of Rd in the reaction product [1]: 8%
Percentage of Rh2 in the reaction product [1]: 2%
Percentage of aglycone in the reaction product [1]: 2%
Percentage of C—K in the reaction product [2]: 56%
Percentage of F2 in the reaction product [2]: 30%
Percentage of Rd in the reaction product [2]: 19%
Percentage of aglycone in the reaction product [2]: 5%
Percentage of F2 in the reaction product [4]: 55%
Percentage of Rd in the reaction product [4]: 45%
Percentage of F2 in the reaction product [5]: 55%
Percentage of Rd in the reaction product [5]: 43%

[Pb+2] [Pb^++]
effect of metal ions on the enzyme reaction [3]: inhibit the reaction
